What all share (assay type): in vivo
For one experiment, the system named is Lettuce seeds. Briefly: Filter paper bioassay on germination and early development of Lettuce seeds. The note with it: lowest concentration causing malformation of radicle or shoots, visually assessed six days after beginning, 0 to 1 mmol/l; for minimal effective concentration: 144 h, read-out: MEC, score (Minimal Effective Concentration, activity score) (converted). Here is the method:
Materials: Seeds of Lettuce R. (Super-Jericho, non-sterilized) were obtained from Ben Shahar Moshe Ltd., 99% purity. The test compounds listed in Table 3 below were synthesized de novo or purchased from different vendors. Bioassays: Filter Paper Bioassays with Lettuce seeds were performed following Bertin et al. 2009 with modifications as described below. Seeds were placed on Whatman no. 1 filter paper (Whatman, Middlesex, U.K.) in Petri dishes (10 seeds per plate) with 2.0 ml of an aqueous solution of test material in a concentration ranging from 0 (control) to 1 mmol/l. The Petri dishes were arranged in a tray tilted at a 45-degree angle and were kept in the dark for 48 hours. Then trays with plates were transferred to the growth chamber with a 6/18 dark/light cycle for four days. Each experiment was performed in at least two repeats.
The development of plants' radicles and shoots was visually assessed six days after the beginning of the test to determine the Minimal Effective Concentration (MEC) of a test material. In the context of the invention, MEC is defined as the lowest concentration level of a test material that caused deviation (malformation of radicle or shoots).

A further experiment deals with Abutilon. The experiment is described as follows: Post-emergence herbicidal effect on potted weeds. Particulars: 2-3 true leaves, up to 5 mg/pot, scale 0 (dead plants) to 5 (healthy, as control). Here is the method: (§1) Weed seeds were sawn in 0.3-liter pots containing medium-heavy clay-loam soil from organic fields (55% clay, 23% silt, 20% sand, 2% organic matter, pH 7.1). The experiment was conducted in a completely randomized design. Each treatment was replicated three times (3 pots). Each compound was typically tested on a weed panel which included Amaranth, Abutilon, Malva, Silybum, and Sinapis. The herbicides were applied at doses from 0 (control) to 5 mg/pot. The herbicides were applied on grown plants at stage 2-3 true leaves (post-emergence treatment). The plants were grown in the mesh house during the entire experiment. Plant development at 6, 12, 19, 26, and 32 days after application (DAA) was evaluated on a scale of 0 to 5, in which 0 represents dead plants, and 5 represents healthy plants similar or not different from Control. In the context of the invention, the herbicidal effect was expressed as a score calculated as an average of assessments of plants' vigor, height, and leaf color.

The next experiment relates to Amaranth. Briefly: Post-emergence herbicidal effect on potted weeds. The note with it: 2-3 true leaves, up to 5 mg/pot, scale 0 (dead plants) to 5 (healthy, as control). How it is done: as §1
Another experiment has as its system Lactuca. Briefly: Post-emergence herbicidal effect on potted weeds. The note with it: 2-3 true leaves, up to 5 mg/pot, scale 0 (dead plants) to 5 (healthy, as control). How it is done:
as §1

Another experiment relates to Lettuce. Briefly: Post-emergence herbicidal effect on potted weeds. Particulars: 2-3 true leaves, up to 5 mg/pot, scale 0 (dead plants) to 5 (healthy, as control). Here is the method: as §1
A further experiment relates to Malva. The experiment is described as follows: Post-emergence herbicidal effect on potted weeds. Particulars: 2-3 true leaves, up to 5 mg/pot, scale 0 (dead plants) to 5 (healthy, as control). How it is done:
as §1

Another experiment relates to Silybum. Briefly: Post-emergence herbicidal effect on potted weeds. Particulars: 2-3 true leaves, up to 5 mg/pot, scale 0 (dead plants) to 5 (healthy, as control). Here is the method:
as §1

In a further experiment the test system is Sinapis. The experiment is described as follows: Post-emergence herbicidal effect on potted weeds. Particulars: 2-3 true leaves, up to 5 mg/pot, scale 0 (dead plants) to 5 (healthy, as control). How it is done: as §1
The subject of a further experiment is Solanum. The experiment is described as follows: Post-emergence herbicidal effect on potted weeds. The note with it: 2-3 true leaves, up to 5 mg/pot, scale 0 (dead plants) to 5 (healthy, as control). How it is done: as §1
In another experiment the test system is Trifolium. The experiment is described as follows: Post-emergence herbicidal effect on potted weeds. Particulars: 2-3 true leaves, up to 5 mg/pot, scale 0 (dead plants) to 5 (healthy, as control). How it is done:
as §1

In a further experiment the test system is Verbesina. Briefly: Post-emergence herbicidal effect on potted weeds. Particulars: 2-3 true leaves, up to 5 mg/pot, scale 0 (dead plants) to 5 (healthy, as control). Here is the method:
as §1

Each structure is given as a SMILES string. Bounds are passed on as bounds.

As for `O=C(O)COc1ccc(F)c(Br)n1` [compound 7157, [(6-bromo-5-fluoropyridin-2-yl)oxy]acetic acid], the minimal effective concentration in the experiment with Lettuce seeds was 1 µM. The “Average Herbicidal Effect, score” value in the experiment with Abutilon is 3; in the experiment on Amaranth, 0; with Lactuca it was 2; with Lettuce it was 1; in the experiment on Malva it was 1; in the experiment on Silybum it was 1. Besides, the “Average Herbicidal Effect, score” value with Sinapis stood at 1; in the experiment on Solanum, 0; in the experiment on Trifolium, 2; with Verbesina, 0.
As to `CCOC(=O)COc1ccc(F)c(Br)n1` [compound 7118, ethyl [(6-bromo-5-fluoropyridin-2-yl)oxy]acetate], the minimal effective concentration in the experiment on Lettuce seeds is under 1 µM. In addition, the “Average Herbicidal Effect, score” value in the experiment on Abutilon is given as 4; with Amaranth, 1; in the experiment on Lactuca, 3; in the experiment on Lettuce, 5; in the experiment with Malva, 1; with Silybum it was 1. For the same compound, the “Average Herbicidal Effect, score” value came to 1 with Sinapis, 0 with Solanum, 2 in the experiment on Trifolium and 2 in the experiment with Verbesina.
As to `CCOCCOCCOC(=O)COc1ccc(F)c(Br)n1` [compound 7156, 2-(2-ethoxyethoxy)ethyl 2-[(6-bromo-5-fluoropyridin-2-yl)oxy]acetate], in the experiment on Lettuce seeds, the activity score is recorded as 5.5 score. The “Average Herbicidal Effect, score” value came out at 1 with Abutilon; 1 with Amaranth; 2 with Lactuca; 0 in the experiment with Lettuce; 1 in the experiment on Malva; 1 in the experiment with Silybum. Besides, the “Average Herbicidal Effect, score” value in the experiment with Sinapis came to 1; in the experiment with Solanum, 0; in the experiment on Trifolium it was 2; in the experiment on Verbesina, 1.

Source of the values: patent US20250374926A1, “NOVEL DERIVATIVES OF NON-CODED AMINO ACIDS AND THEIR USE IN CROP PROTECTION” (FORTEPHEST LTD., priority 2022, published 2025).
